{"source": "patent US7875639B2", "about": "“Compounds as cannabinoid receptor ligands and uses thereof” (priority 2006, dated 2011)", "origin": "cited, not measured here", "key": {"animal models": {"system": "animal models", "details": "animal models of acute thermal pain, persistent pain, inflammatory pain and neuropathic pain"}, "[1]": {"details": "at fully efficacious doses"}, "rodent models": {"system": "rodent models", "details": "rodent models of neuropathic, incisional, and both chronic and acute inflammatory pain"}, "rat": {"system": "rat", "details": "rat formalin model of persistent pain"}, "microglia": {"system": "microglia", "details": "in vitro"}, "[2]": {"system": "CB1I receptor knockout mice", "details": "CB1 receptor knockout mice"}, "[3]": {"system": "apolipoprotein F knockout mice", "details": "low doses"}, "mice": {"system": "mice", "details": "model for post-menopausal osteoporosis"}}}
{"compound": "CN1CCCCC1Cn1cc(C(=O)c2cc([N+](=O)[O-])ccc2I)c2ccccc21", "note": "(stereo not shown) [AM-1241]", "values": [{"measurement": "analgesic efficacy", "setting": "animal models", "result": "exhibits robust analgesic efficacy"}, {"measurement": "typical CB1 receptor-mediated CNS side effects", "setting": "[1]", "result": "devoid of typical CB1 receptor-medicated CNS side effects"}]}
{"compound": "COc1ccc2c(c1)c(CCN1CCOCC1)c(C)n2C(=O)c1cccc(Cl)c1Cl", "note": "[GW405833]", "values": [{"measurement": "efficacy in pain models", "setting": "rodent models", "result": "is efficacious"}, {"measurement": "typical CB1 receptor-mediated CNS side effects", "setting": "[1]", "result": "devoid of typical CB1 receptor-medicated CNS side effects"}]}
{"compound": "CCCCCCC(C)(C)c1cc(OC)c([C@@H]2C=C(CO)[C@@H]3C[C@H]2C3(C)C)c(OC)c1", "note": "[HU-308]", "values": [{"measurement": "antinociceptive response", "setting": "rat", "result": "elicits an antinociceptive response"}]}
{"compound": "CCCC(C)(C)c1ccc2c(c1)OC(C)(C)[C@@H]1CC=C(C)C[C@@H]21", "note": "[JWH-133]", "values": [{"measurement": "β-amyloid-induced microglial activation and neurotoxicity", "setting": "microglia", "result": "abrogated β-amyloid-induced microglial activation and neurotoxicity"}]}
{"compound": "(−)-Δ^9-Tetrahydrocannabinol [Δ^9-THC]", "values": [{"measurement": "analgesic efficacy", "setting": "[2]", "result": "retains some analgesic efficacy"}, {"measurement": "progression of atherosclerotic lesions", "setting": "[3]", "result": "slowed the progression of atherosclerotic lesions"}]}
{"compound": "SR144528", "values": [{"measurement": "osteoclast activity", "setting": "osteoclast", "result": "inhibit osteoclast activity"}, {"measurement": "ovariectomy-induced bone loss", "setting": "mice", "result": "reverse ovariectomy-induced bone loss"}]}
